# Experimental data as given in publication PMC9845330 (Communications Biology, 2023).
# “Also recorded” adds a separate entry of the source. Non-standard residues stand in square brackets, D forms with d. Residues, ends and D or L forms follow the SMILES beside them. *: point of attachment. X1 = O=C(CCCC[C@@H]1SC[C@@H]2NC(=O)N[C@@H]21)NCCCOCCOCCOCCCN*; PEG12 = NCCOCCOCCOCCOCCOCCOCCOCCOCCOCCOCCOCCOCCC(=O)O
# Tests used:
# H1299 cells = experiment: Cell binding and internalization by flow cytometry, relative (normalized) uptake of peptide-streptavidin-phycoerythrin; assay type: cell-based, human; details: for Bmax (best-fit): Supplementary Table 2, normalized binding; for fold decrease in affinity: C-terminal truncation versus full-length monomer
# Protocol: MGS4 was initially selected by phage display biopanning of a peptide library on live cells. […] As such, multivalent binding is often required. To ascertain whether multivalent binding is required for MGS4 internalization, monomeric (MGS4_V2) and tetrameric (MGS4_V1) peptides were synthesized and labeled as described (Supplementary Figure 1). After incubation of varying peptide concentrations on live cells, surface-bound peptide was removed by low pH washes, as well as trypsinization. Relative internalization was measured by flow cytometry to determine an EC50 value which represents the concentration of peptide producing half-maximal internalization. This measurement is dependent on the affinity of the peptide for its cellular target and the rate of internalization. This is a more accurate representation of the biological situation and useful in evaluating the peptides as drug delivery agents. As expected for receptor-mediated endocytosis, uptake of MGS4 is saturable with increasing concentration.
# Fig. 1 Monomeric and tetrameric MGS4 have similar binding, internalization and subcellular location. a Binding and internalization of tetrameric MGS4_V1 and monomeric MGS4_V2 on live H1299 cells in culture. Cells were incubated with the peptide conjugated to streptavidin-phycoerythrin for 1 h at 37 °C. Non-internalized peptide was removed and the cells were analyzed by flow cytometry. b H1299 cells were incubated with MGS4_V1 or MGS4_V2 conjugated to streptavidin-Alexa Fluor 555 (red) for 1 h, washed, fixed and counterstained with WGA-Alexa Fluor 488 (green, cell membrane) and DAPI (blue, nuclei) and analyzed by fluorescence microscopy. The scale bar represents 20 µm. MGS4_V1 and MGS4_V2 internalize to a similar degree and localize to a similar destination. c Truncated monomeric MGS4 peptides have similar EC50 as the parental full-length peptide. Individual measurements are shown. The mean is shown as an “X” and black error bars represent standard error for a minimum of three experimental replicates (SEM). All original binding data and nonlinear regression analysis of the data are included in the supplementary materials.
# Biotinylated peptide was conjugated to streptavidin-R-phycoerythrin or streptavidin-Alexa Fluor 647 (1:1 molar ratio) for 30 min. The open binding sites on streptavidin were quenched with RPMI 1640 and diluted to the indicated concentration. Tumor cells were grown to 90% confluency in a 12 well plate, then incubated with 500 µl peptide-dye conjugate at 37 °C. After 1 h, peptide was removed, and the cells were washed 3x with PBS (137 mM NaCl, 2.7 mM KCl, 10 mM Na2HPO4, 1.8 mM KH2PO4, pH 7.4), 2x with 0.1 M HCl-glycine pH2.2 in 0.9% NaCl, and 1x PBS rinse. Cells were removed by trypsinization. Flow cytometry was performed on a BD FACSCelesta, and data were analyzed on Flowing software. Cells were gated based on the forward and side scatter to include only viable cells and a minimum of 10,000 events were counted. A region containing <5% of the cells in the negative control was established, and relative peptide uptake by the mean fluorescence intensity of that population. For absolute peptide uptake per cell, a standard curve was generated using Quantum™ Alexa Fluor 647 microspheres (Bangs Laboratory, Fishers, IN). A representative linear regression showing the correlation of molecule equivalents soluble fluorophores (MESF) vs the mean fluorescence intensity (MFI) is shown in Supplemental Figure 6. Cells were gated based on the forward and side scatter to include only viable cells and a minimum of 10,000 events were counted. MFI was determined at 50% at peak height. Molecules internalized per cell were determined by the standard curve relating MESF to MFI and divided by the number dye molecules/MGS conjugate. An example is shown in supplemental Figure 7. GraphPad Prism® was used for non-linear regression curve fitting to calculate an EC50. […]
# Stability in human serum = assay type: in vitro ADME; details: 100% human serum, 48 h, 37 °C, serum proteins precipitated, analytical HPLC, MALDI TOF/TOF MS
# Protocol: To address if acetylation is effective in reducing serum degradation of MGS4, acetylated (MGS4_V8) and non-acetylated (MGS4_V4) peptides were dissolved in human serum and incubated for 48 h at 37 °C. The peptides were monitored by analytical HPLC, and products were verified via MALDI TOF/TOF™ MS. […] Instead, a mixture of peptide fragments is detected, none of which correspond to the mass of the starting peptide (Supplemental Table 1 and Supplemental Fig. 2). The major products are shorter fragments corresponding to the loss of the five N-terminal amino acids. Fragments related to QSFYT-PEG11, SFYT-PEG11 and FYT-PEG11 are observed.
# Supplemental Figure 1. […]
# M GS4_V4 (non-acetylated, panel a) and M GS4_V8 (acetylated, panel b ) were incubated in 100% human serum for 0 and 48-hours. Serum proteins were precipitated, and the peptide was analyzed by analytical
# HPLC. The mass of the peptide and degradation products were determined by MALDI MS and are […]
# MGS4_V8, MGS4_V9, or MGS4_V10 were conjugated with streptavidin-Alexa Fluor 650 and were incubated with the indicated cell line for 1 hour. Non-internalized peptide was rem ov ed, and the mean number of peptides internalized per cell was determined to calculate the EC50. […]
# Supplemental Figure 4 : Peptide-Streptavidin conjugates are nontoxic to cells. a. […] After 72 hours, viability was measured. […]
# 100% human serum = details: 37 °C, up to 48 h
# [1] = H1299 cells, 1 h at 37 °C, normalized uptake, one-site specific binding fit, Average ± SEM, minimum 3 replicates
compound,measurement,setting,value
CC(C)[C@H](NC(=O)[C@H](C)NC(=O)[C@H](Cc1c[nH]cn1)NC(=O)[C@@H](N)Cc1ccccc1)C(=O)N1CCC[C@H]1C(=O)N[C@@H](CCC(N)=O)C(=O)N[C@@H](CO)C(=O)N[C@@H](Cc1ccccc1)C(=O)N[C@@H](Cc1ccc(O)cc1)C(=O)N[C@H](C(=O)N[C@@H](C)C(=O)N1CCC[C@H]1C(=O)NCCOCCOCCOCCOCCOCCOCCOCCOCCOCCOCCOCCOCCC(=O)N[C@@H](CCC(=O)NCCCOCCOCCOCCCNC(=O)CCCC[C@@H]1SC[C@@H]2NC(=O)N[C@@H]21)C(N)=O)[C@@H](C)O [MGS4_V2] (H-FHAVPQSFYTAP[PEG12]E(X1)-NH2),Bmax (best-fit),H1299 cells,1.065
CC(C)[C@H](NC(=O)[C@H](C)NC(=O)[C@H](Cc1c[nH]cn1)NC(=O)[C@@H](N)Cc1ccccc1)C(=O)N1CCC[C@H]1C(=O)N[C@@H](CCC(N)=O)C(=O)N[C@@H](CO)C(=O)N[C@@H](Cc1ccccc1)C(=O)N[C@@H](Cc1ccc(O)cc1)C(=O)N[C@H](C(=O)N[C@@H](C)C(=O)NCCOCCOCCOCCOCCOCCOCCOCCOCCOCCOCCOCCOCCC(=O)N[C@@H](CCC(=O)NCCCOCCOCCOCCCNC(=O)CCCC[C@@H]1SC[C@@H]2NC(=O)N[C@@H]21)C(N)=O)[C@@H](C)O [MGS4_V3] (H-FHAVPQSFYTA[PEG12]E(X1)-NH2),fold decrease in affinity,H1299 cells,3-5 fold
same,Bmax (best-fit),H1299 cells,1.247
CC(C)[C@H](NC(=O)[C@H](C)NC(=O)[C@H](Cc1c[nH]cn1)NC(=O)[C@@H](N)Cc1ccccc1)C(=O)N1CCC[C@H]1C(=O)N[C@@H](CCC(N)=O)C(=O)N[C@@H](CO)C(=O)N[C@@H](Cc1ccccc1)C(=O)N[C@@H](Cc1ccc(O)cc1)C(=O)N[C@H](C(=O)NCCOCCOCCOCCOCCOCCOCCOCCOCCOCCOCCOCCOCCC(=O)N[C@@H](CCC(=O)NCCCOCCOCCOCCCNC(=O)CCCC[C@@H]1SC[C@@H]2NC(=O)N[C@@H]21)C(N)=O)[C@@H](C)O [MGS4_V4] (H-FHAVPQSFYT[PEG12]E(X1)-NH2),fold decrease in affinity,H1299 cells,3-5 fold
same,Bmax (best-fit),H1299 cells,1.402
same,peptide after incubation in human serum,Stability in human serum,none of the starting material
CC(=O)N[C@@H](Cc1ccccc1)C(=O)N[C@@H](Cc1c[nH]cn1)C(=O)N[C@@H](C)C(=O)N[C@H](C(=O)N1CCC[C@H]1C(=O)N[C@@H](CCC(N)=O)C(=O)N[C@@H](CO)C(=O)N[C@@H](Cc1ccccc1)C(=O)N[C@@H](Cc1ccc(O)cc1)C(=O)N[C@H](C(=O)N[C@@H](C)C(=O)N1CCC[C@H]1C(=O)NCCOCCOCCOCCOCCOCCOCCOCCOCCOCCOCCOCCOCCC(=O)N[C@@H](CCC(=O)NCCCOCCOCCOCCCNC(=O)CCCC[C@@H]1SC[C@@H]2NC(=O)N[C@@H]21)C(N)=O)[C@@H](C)O)C(C)C [MGS4_V7] (Ac-FHAVPQSFYTAP[PEG12]E(X1)-NH2),Bmax (best-fit),H1299 cells,1.470
AcFHAVPQSFYT-PEG11,not cleaved,100% human serum,only full-length peptide observed after 48 h; 93.4% of peak at 48 Hours (93.5% in starting material)
"FHAVPQSFY*** [MGS4_V5, monomeric MGS4 truncated by three C-terminal amino acids]",EC50 (nM),H1299 cells; [1],Not Detected^2
FHAVPQSFYT-PEG11,cleaved bond,100% human serum,"P-Q, major, 48 Hours"
same,fragment found,100% human serum,"SFYT-PEG11, 48 Hours; also recorded: FYT-PEG11, 48 Hours"
"FHAVPQSFYTAP [MGS4_V1, tetrameric full-length MGS4 peptide]",EC50,H1299 cells; [1],3.6 ± 0.49 nM
same,Bmax (best-fit),H1299 cells,1.171
